Source: patent publication US10899773B2 (priority 2014, dated 2021)

What was measured:
Experiment in all cases: cells
Format in all cases: cell-based
MES SA = conditions: Homo sapiens, 72 h, read-out: MES SA IC50 nM
MES SA DX = conditions: Homo sapiens, 72 h, read-out: MES SA DX IC50 nM
293T = conditions: Homo sapiens, HEK-293T, 72 h, read-out: 293T IC50 nM

Compound	IC50 (MES SA) [nM]	IC50 (MES SA DX) [nM]	IC50 (293T) [nM]
COc1c2c(c(O)c3c4c(c(C)cc13)C1C3OC5(C(OC)OC)OC15[C@]1(CO1)[C@]3(O)O4)C(=O)[C@@H](O)C[C@@H]2OC1CC(C)(O)C(OC(C)=O)C(C)O1 (stereo partly drawn) [Trox12]	18.1	> 1000	14.9
COc1c2c(c(O)c3c4c(c(C)cc13)C1C3OC5(C(OC)OC)OC15[C@]1(CO1)[C@]3(OC1CC(OC(C)=O)C(O)(C(C)=O)C(C)O1)O4)C(=O)[C@@H](O)C[C@@H]2OC1CC(C)(O)C(OC(C)=O)C(C)O1 (stereo partly drawn) [Trox16]	2.02	> 1000	2.81
COc1c2c(c(O)c3c4c(c(C)cc13)C1C3OC5(C(OC)OC)OC15[C@]1(CO1)[C@]3(OC1CC(OC(C)=O)C(O)(C(C)=O)C(C)O1)O4)C(=O)[C@@H](O)C[C@@H]2O (stereo partly drawn) [Trox15]	157	> 1000	95.4
COc1c2c(c(O)c3c4c(c(C)cc13)C1C3OC5(C(OC)OC)OC15[C@]1(CO1)[C@]3(OC1CC(O)C(O)(C(C)=O)C(C)O1)O4)C(=O)[C@@H](O)C[C@@H]2OC1CC(C)(O)C(OC(C)=O)C(C)O1 (stereo partly drawn) [Trox13]	0.74	204	0.702
COc1c2c(c(O)c3c4c(c(C)cc13)C1C3OC5(C(OC)OC)OC15[C@]1(CO1)[C@]3(OC1CC(O)C(O)(C(C)=O)C(C)O1)O4)C(=O)[C@@H](O)C[C@@H]2OC1CC(C)(O)C(O)C(C)O1 (stereo partly drawn) [Trox14]	11.1	> 1000	8.02
